Experimental data taken from ChEMBL document CHEMBL1938244, “Synthesis, anticancer activity and apoptosis inducing ability of bisindole linked pyrrolo[2,1-c][1,4]benzodiazepine conjugates” (2012).
Active and inactive are the calls of the source. The calls are words filed in the database; no cut-off is given here.

How the values were obtained:
Tubulin (Homo sapiens) = Tubulin (Homo sapiens) (UniProt P68371+Q9H4B7+P0DPH7+P68366+Q13509+Q71U36+P04350+Q3ZCM7+P07437+P68363+Q9BQE3+Q6PEY2+Q13885+Q9BVA1+Q9BUF5); test: Inhibition of tubulin polymerization in human MCF7 cells at 2 uM after 24 hrs by FITC-conjugated immunostaining assay; type: cell-based
MCF7 [1] = test: Inhibition of HDAC1 protein expression in human MCF7 cells at 2 uM after 24 hrs by Western blotting; type: functional, cell-based
MCF7 [2] = test: Inhibition of HDAC2 protein expression in human MCF7 cells at 2 uM after 24 hrs by Western blotting; type: functional, cell-based
MCF7 [3] = test: Inhibition of HDAC3 protein expression in human MCF7 cells at 2 uM after 24 hrs by Western blotting; type: functional, cell-based
MCF7 [4] = test: Inhibition of HDAC8 protein expression in human MCF7 cells at 2 uM after 24 hrs by Western blotting; type: functional, cell-based
MCF7 [5] = test: Increase in p21 protein level in human MCF7 cells at 2 uM after 24 hrs by Western blotting; type: functional, cell-based
MCF7 [6] = test: Induction of apoptosis in human MCF7 cells assessed as PARP-cleavage at 8 uM after 24 hrs by Western blot analysis; type: functional, cell-based
MCF7 [7] = test: Induction of apoptosis in human MCF7 cells assessed as caspase-7 activation at 8 uM after 24 hrs by Western blot analysis; type: functional, cell-based
MCF7 [8] = test: Anticancer activity against human MCF7 cells by SRB method; type: functional
ZR-75-1 = test: Anticancer activity against human ZR-75-1 cells by SRB method; type: functional
A2780 = test: Anticancer activity against human A2780 cells by SRB method; type: functional
COLO 205 = test: Anticancer activity against human COLO205 cells by SRB method; type: functional
SiHa = test: Anticancer activity against human SiHa cells by SRB method; type: functional
A549 = test: Anticancer activity against human A549 cells by SRB method; type: functional
KB = test: Anticancer activity against human KB cells by SRB method; type: functional
MCF7 [9] = test: Anticancer activity against human MCF7 cells assessed as cell death at 2 uM after 24 hrs by MTT assay; type: functional
MCF7 [10] = test: Induction of cell cycle arrest in human MCF7 cells assessed as accumulation of cells in G0 phase at 2 uM after 24 hrs by flow cytometry relative to untreated control; type: functional
MCF7 [11] = test: Induction of cell cycle arrest in human MCF7 cells assessed as accumulation of cells in G1 phase at 2 uM after 24 hrs by flow cytometry relative to untreated control; type: functional
MCF7 [12] = test: Induction of cell cycle arrest in human MCF7 cells assessed as accumulation of cells in S phase at 2 uM after 24 hrs by flow cytometry relative to untreated control; type: functional
MCF7 [13] = test: Induction of cell cycle arrest in human MCF7 cells assessed as accumulation of cells in G2/M phase at 2 uM after 24 hrs by flow cytometry relative to untreated control; type: functional
MCF7 [14] = test: Induction of cell cycle arrest in human MCF7 cells assessed as accumulation of cells in G0 phase at 4 uM after 24 hrs by flow cytometry relative to untreated control; type: functional
MCF7 [15] = test: Induction of cell cycle arrest in human MCF7 cells assessed as accumulation of cells in G1 phase at 4 uM after 24 hrs by flow cytometry relative to untreated control; type: functional
MCF7 [16] = test: Induction of cell cycle arrest in human MCF7 cells assessed as accumulation of cells in S phase at 4 uM after 24 hrs by flow cytometry relative to untreated control; type: functional
MCF7 [17] = test: Induction of cell cycle arrest in human MCF7 cells assessed as accumulation of cells in G2/M phase at 4 uM after 24 hrs by flow cytometry relative to untreated control; type: functional
MCF7 [18] = test: Induction of cell cycle arrest in human MCF7 cells assessed as accumulation of cells in G0 phase at 8 uM after 24 hrs by flow cytometry relative to untreated control; type: functional
MCF7 [19] = test: Induction of cell cycle arrest in human MCF7 cells assessed as accumulation of cells in G1 phase at 8 uM after 24 hrs by flow cytometry relative to untreated control; type: functional
MCF7 [20] = test: Induction of cell cycle arrest in human MCF7 cells assessed as accumulation of cells in S phase at 8 uM after 24 hrs by flow cytometry relative to untreated control; type: functional
MCF7 [21] = test: Induction of cell cycle arrest in human MCF7 cells assessed as accumulation of cells in G2/M phase at 8 uM after 24 hrs by flow cytometry relative to untreated control; type: functional
MCF7 [22] = test: Induction of cell cycle arrest in human MCF7 cells assessed as accumulation of cells in G0 phase at 2 uM after 24 hrs by flow cytometry (reference value: 2.9%); type: functional
MCF7 [23] = test: Induction of cell cycle arrest in human MCF7 cells assessed as accumulation of cells in G1 phase at 2 uM after 24 hrs by flow cytometry (reference value: 46%); type: functional
MCF7 [24] = test: Induction of cell cycle arrest in human MCF7 cells assessed as accumulation of cells in S phase at 2 uM after 24 hrs by flow cytometry (reference value: 14.87%); type: functional
MCF7 [25] = test: Induction of cell cycle arrest in human MCF7 cells assessed as accumulation of cells in G2/M phase at 2 uM after 24 hrs by flow cytometry (reference value: 36.23%); type: functional
MCF7 [26] = test: Induction of cell cycle arrest in human MCF7 cells assessed as accumulation of cells in G0 phase at 4 uM after 24 hrs by flow cytometry (reference value: 3.22%); type: functional
MCF7 [27] = test: Induction of cell cycle arrest in human MCF7 cells assessed as accumulation of cells in G1 phase at 4 uM after 24 hrs by flow cytometry (reference value: 65.58%); type: functional
MCF7 [28] = test: Induction of cell cycle arrest in human MCF7 cells assessed as accumulation of cells in S phase at 4 uM after 24 hrs by flow cytometry (reference value: 5.55%); type: functional
MCF7 [29] = test: Induction of cell cycle arrest in human MCF7 cells assessed as accumulation of cells in G2/M phase at 4 uM after 24 hrs by flow cytometry (reference value: 25.65%); type: functional
MCF7 [30] = test: Induction of cell cycle arrest in human MCF7 cells assessed as accumulation of cells in G0 phase at 8 uM after 24 hrs by flow cytometry (reference value: 3.22%); type: functional
MCF7 [31] = test: Induction of cell cycle arrest in human MCF7 cells assessed as accumulation of cells in G1 phase at 8 uM after 24 hrs by flow cytometry (reference value: 65.58%); type: functional
MCF7 [32] = test: Induction of cell cycle arrest in human MCF7 cells assessed as accumulation of cells in S phase at 8 uM after 24 hrs by flow cytometry (reference value: 5.55%); type: functional
MCF7 [33] = test: Induction of cell cycle arrest in human MCF7 cells assessed as accumulation of cells in G2/M phase at 8 uM after 24 hrs by flow cytometry (reference value: 25.65%); type: functional

COc1cc2c(cc1OCCCCCOc1ccc(C(c3c[nH]c4ccccc34)c3c[nH]c4ccccc34)cc1)N=C[C@@H]1CCCN1C2=O
inhibition (Tubulin (Homo sapiens)): Active | inhibition (MCF7 [1]): Active | inhibition (MCF7 [2]): Active | inhibition (MCF7 [3]): Active | inhibition (MCF7 [4]): Active | Activity (MCF7 [5]): Active | Activity (MCF7 [6]): Active | Activity (MCF7 [7]): Active | GI50 (MCF7 [8]): 140 nM | GI50 (ZR-75-1): 120 nM | GI50 (A2780): 110 nM | GI50 (COLO 205): 26100 nM | GI50 (SiHa): 180 nM | GI50 (A549): 2400 nM | GI50 (KB): 130 nM | Activity (MCF7 [9]): 50% | Activity (MCF7 [10]): 3.57% | Activity (MCF7 [11]): 40.67% | Activity (MCF7 [12]): 9.08% | Activity (MCF7 [13]): 46.67% | Activity (MCF7 [14]): 16.11% | Activity (MCF7 [15]): 68.33% | Activity (MCF7 [16]): 6.95% | Activity (MCF7 [17]): 8.6% | Activity (MCF7 [18]): 50.15% | Activity (MCF7 [19]): 46.11% | Activity (MCF7 [20]): 2.32% | Activity (MCF7 [21]): 1.41% | Activity (MCF7 [22]): 3.96% | Activity (MCF7 [23]): 41.51% | Activity (MCF7 [24]): 9.34% | Activity (MCF7 [25]): 45.19% | Activity (MCF7 [26]): 16.45% | Activity (MCF7 [27]): 68.23% | Activity (MCF7 [28]): 6.97% | Activity (MCF7 [29]): 8.35% | Activity (MCF7 [30]): 51.96% | Activity (MCF7 [31]): 44.26% | Activity (MCF7 [32]): 2.04% | Activity (MCF7 [33]): 1.75%
